How the values were obtained:
Assay type in all cases: in vivo
[1] = system: common (oilseed) sunflower (Helianthus annuus); assay: Test C pre-/postemergence: sunflower; conditions: Preemergence
From the text: (§1) Seeds of plant species selected from blackgrass (Alopecurus myosuroides), bromegrass, downy (downy bromegrass, Bromus tectorum), foxtail, green (green foxtail, Setaria viridis), ryegrass, Italian (Italian ryegrass, Lolium multiflorum), winter wheat (Triticum aestivum), wild oat (Avena fatua), galium (catchweed bedstraw, Galium aparine), bermudagrass (Cynodon dactylon), surinam grass (Brachiaria decumbens), cocklebur (common cocklebur, Xanthium strumarium), corn (Zea mays), large crabgrass (Digitaria sanguinalis), woolly cupgrass (Eriochloa villosa), foxtail, giant (giant foxtail, Setaria faberii), goosegrass (Eleusine indica), johnsongrass (Sorghum halepense), kochia (Kochia scoparia), lambsquarters (Chenopodium album), morningglory (Ipomoea coccinea), nightshade (eastern black nightshade, Solanum ptycanthum), nutsedge, yellow (yellow nutsedge, Cyperus esculentus), pigweed (Amaranthus retroflexus), ragweed (common ragweed, Ambrosia elation), soybean (Glycine max), common (oilseed) sunflower (Helianthus annuus), Russian thistle (Salsola kali) and velvetleaf (Abutilon theophrasti) were planted into a blend of loam soil and sand and treated preemergence with test chemicals formulated in a non-phytotoxic solvent mixture which included a surfactant.
(§2) At the same time, plants selected from these crop and weed species and also barley (winter barley, Hordeum vulgare), canarygrass (Phalaris minor), chickweed (common chickweed, Stellaria media) windgrass (Apera spica-venti) and deadnettle (henbit deadnettle, Lamium amplexicaule) were planted in pots containing Redi-Earth® planting medium (Scotts Company, 14111 Scottslawn Road, Marysville, Ohio 43041) comprising spaghnum peat moss, vermiculite, wetting agent and starter nutrients and treated with postemergence applications of test chemicals formulated in the same manner. Plants ranged in height from 2 to 18 cm (1- to 4-leaf stage) for postemergence treatments.
(§3) Treated plants and controls were maintained in a greenhouse for 13 to 15 days, after which time all species were compared to controls and visually evaluated. Plant response ratings, summarized in Table C, are based on a scale of 0 to 100 where 0 is no effect and 100 is complete control. A dash (-) response means no test result.

[2] = system: bermudagrass (Cynodon dactylon); assay: Test C pre-/postemergence: bermudagrass
From the text: as §1, §2, §3

[3] = system: barley (winter barley, Hordeum vulgare); assay: Test C postemergence: barley
From the text: as §2, §3

[4] = system: sedge, umbrella (small-flower umbrella sedge Cyperus difformis); assay: Test B flooded paddy: sedge, umbrella; conditions: Flood; 250 g ai/ha; applied to paddy water at 2-leaf stage; visually evaluated after 13 to 15 days
Summary of the method: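 2-leaf plants; pots flooded 3 cm over soil; compound added to paddy water, depth kept constant. Greenhouse 13–15 d. Visual rating vs controls, 0–100 scale (100 = complete control); dash = no result.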

[5] = 31 g ai/ha, scale of 0 to 100, 0 is no effect, 100 is complete control
[6] = 125 g ai/ha, scale 0 to 100, 0 no effect, 100 complete control
[7] = 250 g ai/ha, scale 0 to 100, 0 no effect, 100 complete control
[8] = Postemergence, 31 g ai/ha, scale 0 to 100 (0 no effect, 100 complete control)
[9] = Postemergence, 62 g ai/ha, scale 0 to 100 (0 no effect, 100 complete control)
[10] = Postemergence, 125 g ai/ha, scale 0 to 100, 0 no effect, 100 complete control
[11] = Postemergence, 250 g ai/ha, scale 0 to 100
[12] = Preemergence, 31 g ai/ha, scale of 0 to 100, 0 is no effect, 100 is complete control
[13] = Preemergence, 125 g ai/ha, scale 0 to 100, 0 no effect, 100 complete control
[14] = Preemergence, 250 g ai/ha, scale 0 to 100, 0 no effect, 100 complete control
[15] = 31 g ai/ha, scale 0 to 100 (0 no effect, 100 complete control)
[16] = 62 g ai/ha, scale 0 to 100 (0 no effect, 100 complete control)

Compound	Plant response rating, Sunflower [1, 5]	Plant response rating, Sunflower ([1]; 62 g ai/ha, scale of 0 to 100, 0 is no effect, 100 is complete control)	Plant response rating, Sunflower [1, 6]	Plant response rating, Sunflower [1, 7]	Plant response rating, Bermudagrass [2, 8]	Plant response rating, Bermudagrass [2, 9]	Plant response rating, Bermudagrass [2, 10]	Plant response rating, Bermudagrass [2, 11]	Plant response rating, Bermudagrass [2, 12]	Plant response rating, Bermudagrass ([2]; Preemergence, 62 g ai/ha, scale 0 to 100, 0 no effect, 100 complete control)	Plant response rating, Bermudagrass [2, 13]	Plant response rating, Bermudagrass [2, 14]	Plant response rating, Barley [3, 15]	Plant response rating, Barley [3, 16]	Plant response rating, Barley [3, 6]	Plant response rating, Barley ([3]; 250 g ai/ha, scale 0 to 100)	Plant response rating, Sedge, Umbrella (0 to 100 scale, 0 is no effect, 100 is complete control) [4]	Plant response rating, Bermudagrass ([2]; Preemergence, 62 g ai/ha, scale of 0 to 100, 0 is no effect, 100 is complete control)
Cc1nn(-c2ccc(C(F)(F)F)cc2)nc1Cc1ccnc(C(F)(F)F)c1 [Compound 47, 4-[[5-methyl-2-[4-(trifluoromethyl)phenyl]-2H-1,2,3-triazol-4-yl]methyl]-2-(trifluoromethyl)pyridine]	0	0	0	10	10	20	55	75	100	100	100	100	35	45	50	55		
Fc1ccc(-n2nc(Cc3ccnc(C(F)(F)F)c3)c(OCC(F)(F)F)n2)cc1 [Compound 142]	15		15	25	15	70	75	85	98		98	98	20	35	40	45	90	98
